Assays:
[1] = system: tobacco plants transformed with glyphosate-tolerant petunia EPSP synthase (pMON567); assay: Relative effect of glyphosate spray, GT plants; type: in vivo, Nicotiana tobacam CV H425
Excerpt: (§1) A culture of A. tumefaciens cells containing pMON567/pGV3111-SE was co-cultured with leaf disks taken from tobacco plants (Nicotiana tobacam CV H425) as described by Horsch (1985). The Agrobacterium cells inserted the variant EPSP synthase gene into the chromosomes of the plant cells. Plant cells resistant to kanamycin were selected and regenerated into differentiated plants by the procedure of Horsch (1985).
(§2) Progeny of these plants were propagated and grown to a rosette diameter of about 10 cm corresponding to a plant age of about four weeks. The plants were sprayed with glyphosate at levels corresponding to 0.4, 2.0 and 3.6 pounds acid equivalent/acre. The effect of glyphosate on the transformed plants were scored at 7, 14 and 28 days. The effect was translated to a numerical scale of 0-10 in which 0 represents total kill and 10 is the normal, unsprayed plant. […] The values represent the best transformant for both wild-type EPSP synthase and glypho sate-tolerant EPSP synthase genes.

[2] = system: tobacco, sugarbeet, tomato, soybean and cotton plants transformed with the variant EPSPS gene; assay: Glyphosate tolerance of other transformed plant species; settings: in vivo
Excerpt: A gene encoding the variant EPSPS enzyme of the present invention having a glycine to alanine substitution at position 101 and an alanine to threonine substitution at position 192 of the mature EPSPS enzyme has also been introduced into other plant species such as tobacco, sugarbeet, tomato, soybean and cotton. […] In particular, the glycine to alanine and alanine to threonine substitutions of the present invention have been introduced into a genomic clone of the Arabidopsis EPSPS gene and this gene introduced into canola and tobacco plants using suitable plant transformation vectors.

[3] = system: petunia plants transformed with pMON546 (CaMV35S/wild-type petunia EPSP synthase); assay: Plant response to glyphosate spraying, chimeric EPSPS plants; type: in vivo; settings: 0.8 #/acre acid equivalent (0.897 kg/hectare), isopropylamine salt, spray
Excerpt: Transformed petunia plants were produced by regeneration from the above-described transformed leaf disks by the procedure described by Horsch, et al. (1985). The transformed plants obtained contained the pMON546 vector, described hereinabove, which contains the CaMV35S promoter fused to the wild-type petunia EPSP synthase gene.
Four individual representative transgenic seedlings were selected, grown and tested in the testing procedure described below, along with four individual non-transformed (wild-type) petunia seedlings.
The plants were grown in a growth medium in a growth chamber at 26° C. with 12 hours of light per day. The plants were fertilized weekly with a soluble fertilizer and watered as needed. The plants were sprayed at a uniform and reproducible delivery rate of herbicide by use of an automated track sprayer. The glyphosate solution used was measured as pounds of glyphosate acid equivalents per acre, mixed as the glyphosate isopropylamine salt, with an ionic surfactant.
Four individual wild-type (non-transformed) petunia plants were selected for use as control plants. Four individual transformed plants containing the pMON546 vector were selected by kanamycin resistance as described by Horsch, et al. (1985). […]

[4] = system: tobacco plants transformed with wild-type EPSP synthase; assay: Relative effect of glyphosate spray, WT plants; type: in vivo, Nicotiana tobacam CV H425
Excerpt: as §1, §2

[5] = system: petunia leaf disks transformed with pMON546 (CaMV35S/EPSP synthase gene); assay: Leaf disk callus growth on glyphosate medium, transformed disks; type: cell-based; settings: within 10 days
Procedure: (§3) Leaf disks with diameters of 6 mm (1/4 inch) were taken from surface-sterilized petunia leaves. They were cultured on MS104 agar medium for 2 days to promote partial cell wall formation at the wound surfaces. They were then submerged in a culture of A. tumefaciens cells containing both pMON546 and GV3111-SE which had grown overnight in Luria broth at 28° C., and shaken gently. The leaf disks were removed from the bacterial suspension, blotted dry, and incubated upside down on filter paper placed over "nurse" cultures of tobacco cells, as described by Horsch (1980). After 2 or 3 days, the disks were transferred to petri dishes containing MS media with 500 μg/ml carbenicillin and 0. 0.1, 0.25, or 0.5 mM glyphosate (sodium salt), with no nurse cultures.

[6] = molecular target: T1, EPSPS in crude extracts of tobacco plants transformed with pMON10079 (Petunia hybrida, UniProt P11043, A264T/G173A); assay: EPSPS assay of crude plant extracts in the presence of glyphosate; type: biochemical; settings: 1.0 mM glyphosate; eleven transformed plants
T1 construct: an alanine to threonine substitution at position 192 of the mature EPSPS enzyme has also been introduced into other plant species such as tobacco; expressed in transfected cells; host or cells: transgenic tobacco plants (pMON10079), crude plant extracts
T1 sequence (P11043 73-516 G173A/A264T): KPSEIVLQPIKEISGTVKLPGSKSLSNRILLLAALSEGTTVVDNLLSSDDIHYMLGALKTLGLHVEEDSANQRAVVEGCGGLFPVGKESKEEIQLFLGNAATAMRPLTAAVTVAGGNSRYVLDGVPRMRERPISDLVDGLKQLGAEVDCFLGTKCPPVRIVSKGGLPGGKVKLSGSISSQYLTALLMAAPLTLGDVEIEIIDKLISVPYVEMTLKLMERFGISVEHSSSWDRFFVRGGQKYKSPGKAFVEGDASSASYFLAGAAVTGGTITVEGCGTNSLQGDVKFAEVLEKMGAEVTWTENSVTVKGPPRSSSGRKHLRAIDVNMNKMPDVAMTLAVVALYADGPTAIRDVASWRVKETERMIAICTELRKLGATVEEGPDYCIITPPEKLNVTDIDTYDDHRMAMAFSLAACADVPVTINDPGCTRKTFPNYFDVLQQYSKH
Excerpt: Thus, the petunia EPSPS variant with the glycine to alanine substitution at position 101 and the alanine to threonine substitution at position 192 does confer glyphosate tolerance to transformed plants.

[7] = system: petunia leaf disks transformed with control vector pMON505; assay: Leaf disk callus growth on glyphosate medium, control disks; type: cell-based; settings: within 10 days
Procedure: as §3
Control tissue was created using A. tumefaciens cells containing the helper plasmid pGV3111-SE and a different plant transformation vector, pMON505, which contained a T-DNA region with a NOS/NPTII/NOS kanamycin resistance gene and a NOS selectable marker gene identical to pMON546, but without the CaMV35S/EPSP synthase gene.

[8] = system: non-transformed canola plants; assay: Glyphosate spray of canola, non-transformed controls; type: in vivo; settings: 0.56 kg/ha spray
Excerpt: A total of 15 transgenic canola plants containing the pMON10074 construct, and 2 non-transformed controls were sprayed with glyphosate at a commercial rate of 0.56 kg/ha. The effect of glyphosate on both the vegetative and reproductive performance of the sprayed plants was scored at 7, 14 and 28 days after spray. The effect of glyphosate was translated to a numerical scale of 0-10, where 0 represents total kill and 10 represents the normal, unsprayed plant. The non-transformed controls had vegetative scores of 2 after 14 days and reproductive scores of 0 after 28 days.

[9] = 0.4 pounds/acre (0.448 kg/hectare), day 7, best transformant
[10] = 0.4 pounds/acre (0.448 kg/hectare), day 14, best transformant
[11] = 0.4 pounds/acre (0.448 kg/hectare), day 28, best transformant
[12] = 2.0 pounds/acre (2.242 kg/hectare), day 7, best transformant
[13] = 2.0 pounds/acre (2.242 kg/hectare), day 14, best transformant
[14] = 2.0 pounds/acre (2.242 kg/hectare), day 28, best transformant
[15] = 3.6 pounds/acre (4.035 kg/hectare), day 7, best transformant
[16] = 3.6 pounds/acre (4.035 kg/hectare), day 14, best transformant
[17] = 3.6 pounds/acre (4.035 kg/hectare), day 28, best transformant
[18] = 0.25 mM glyphosate (sodium salt)
[19] = 0.5 mM glyphosate (sodium salt)

O=C(O)CNCP(=O)(O)O [glyphosate, N-phosphonomethylglycine]
Relative Effect of Glyphosate (0 total kill, 10 no effect) [1, 9]: 8.0 | Relative Effect of Glyphosate (0 total kill, 10 no effect) [1, 10]: 8.0 | Relative Effect of Glyphosate (0 total kill, 10 no effect) [1, 11]: 9.0 | Relative Effect of Glyphosate (0 total kill, 10 no effect) [1, 12]: 8.0 | Relative Effect of Glyphosate (0 total kill, 10 no effect) [1, 13]: 8.3 | Relative Effect of Glyphosate (0 total kill, 10 no effect) [1, 14]: 7.0 | Relative Effect of Glyphosate (0 total kill, 10 no effect) [1, 15]: 5.0 | Relative Effect of Glyphosate (0 total kill, 10 no effect) [1, 16]: 7.4 | Relative Effect of Glyphosate (0 total kill, 10 no effect) [1, 17]: 7.0 | glyphosate tolerance of transformed plants [2]: exhibited glyphosate tolerance | Visual Appearance [3]: growing well | Relative Effect of Glyphosate (0 total kill, 10 no effect) [4, 9]: 6.0 | Relative Effect of Glyphosate (0 total kill, 10 no effect) [4, 10]: 7.0 | Relative Effect of Glyphosate (0 total kill, 10 no effect) [4, 11]: 9.0 | Relative Effect of Glyphosate (0 total kill, 10 no effect) [4, 12]: 5.0 | Relative Effect of Glyphosate (0 total kill, 10 no effect) [4, 13]: 1.8 | Relative Effect of Glyphosate (0 total kill, 10 no effect) [4, 14]: 0.8 | Relative Effect of Glyphosate (0 total kill, 10 no effect) [4, 15]: 5.0 | Relative Effect of Glyphosate (0 total kill, 10 no effect) [4, 16]: 1.7 | Relative Effect of Glyphosate (0 total kill, 10 no effect) [4, 17]: 0.8 | callus growth, transformed versus control disks ([5]; 0.1 mM glyphosate (sodium salt)): little detectable difference between the control disks and the transformed tissue | callus growth [5, 18]: substantial growth of transformed tissue occurred | callus growth [5, 19]: a significant number of calli grew from the transformed disks | glyphosate resistance of plant EPSPS [6]: all eleven exhibited glyphosate resistance | callus growth [7, 18]: very little growth of callus from control disks | callus growth [7, 19]: no callus growth from the control disks | vegetative score (scale 0-10, 0 total kill, 10 normal unsprayed plant) ([8]; after 14 days): 2 | reproductive score (scale 0-10, 0 total kill, 10 normal unsprayed plant) ([8]; after 28 days): 0

— patent publication US5866775A, “Glyphosate-tolerant 5-enolpyruvyl-3-phosphoshikimate synthases” (Monsanto Company, priority 1990, dated 1999)
